The target in the assay is T1, human CB2R (Homo sapiens, UniProt P34972).
T1 construct: host or cells: CHO cells
Kind of assay: CB2R mediated modulation of cAMP synthesis. Type of assay: cell-based. Conditions: for agonistic activity: found through the use of the above described assays. The method, then: B. CB2R Mediated Modulation of cAMP Synthesis:
CHO cells expressing human CB2R (Euroscreen) were plated at a density of 5000 cells per well in 384 well plates and incubated overnight at 37° C. After removing the media, the cells were treated with test compounds diluted in stimulation buffer containing 1 mM IBMX, 0.25% BSA and 10 uM Forskolin. The assay was incubated for 30 minutes at 37° C. Cells were lysed and the cAMP concentration was measured using DiscoverX-XS cAMP kit, following the manufacturer's protocol. In this setting, agonists will decrease forskolin induced production of cAMP while inverse agonists will further increase forskolin induced production of cAMP. EC50 of agonists were calculated as follows. The maximal amount of cAMP produced by forskolin compared to the level of cAMP inhibited by 1 uM CP55940 is defined as 100%. The EC50 value of each test compound was determined as the concentration at which 50% of the forskolin-stimulated cAMP synthesis was inhibited. Data was analyzed using a four-parameter logistic model. (Model 205 of XLfit 4.0).

Where [1] appears, read: CHO cells expressing human CB2R, inhibition of forskolin-stimulated cAMP synthesis, compounds having agonist activity, read-out: CB2 EC50.

Each structure is given as a SMILES string. Read-outs that look alike come from different tables or passages of the source.

T1 sequence (P34972 whole entry): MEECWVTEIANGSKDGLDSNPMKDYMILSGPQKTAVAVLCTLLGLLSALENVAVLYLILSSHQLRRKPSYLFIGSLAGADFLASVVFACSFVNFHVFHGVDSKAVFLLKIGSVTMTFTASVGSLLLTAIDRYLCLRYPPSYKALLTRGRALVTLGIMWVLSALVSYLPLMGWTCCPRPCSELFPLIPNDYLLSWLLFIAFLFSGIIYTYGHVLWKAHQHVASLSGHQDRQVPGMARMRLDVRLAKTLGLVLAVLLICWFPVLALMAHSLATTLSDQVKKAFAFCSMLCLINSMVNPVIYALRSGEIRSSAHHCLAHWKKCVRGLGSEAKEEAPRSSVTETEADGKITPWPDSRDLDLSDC

With `Cc1nc(NC(=O)C(C)(C)S(=O)(=O)Cc2ccc(Cl)cc2)sc1C(C)(C)C` [N-(5-tert-Butyl-4-methyl-thiazol-2-yl)-2-(4-chloro-phenylmethanesulfonyl)-2-methyl-propionamide], the 50% effective concentration (EC50) is 12.1 nM and the agonistic activity entry is “agonistic activity”.

Take `CC(C)S(=O)(=O)C(C)(C)C(=O)Nc1ccc2ccccc2c1` [2-Methyl-N-naphthalen-2-yl-2-(propane-2-sulfonyl)-propionamide]: the agonistic activity entry was “agonistic activity”.

Take `Cn1nc(C(C)(C)C)cc1NC(=O)C(C)(C)S(=O)(=O)CC1CCCO1` (stereo not drawn) [N-(5-tert-Butyl-2-methyl-2H-pyrazol-3-yl)-2-methyl-2-(tetrahydro-furan-2-ylmethanesulfonyl)-propionamide]: the agonistic activity entry is reported as “agonistic activity”.

As for `CC(C)(C)c1cc(NC(=O)C(C)(C)S(=O)(=O)C2CC2)no1` [N-(5-tert-Butyl-isoxazol-3-yl)-2-cyclopropanesulfonyl-2-methyl-propionamide], the agonistic activity result is reported as “agonistic activity”.

Consider `CCCS(=O)(=O)C(C)(C)C(=O)Nc1c(C)c(-c2ccccc2)nn1C` [N-(2,4-Dimethyl-5-phenyl-2H-pyrazol-3-yl)-2-methyl-2-(propane-1-sulfonyl)-propionamide], for which the agonistic activity result is “agonistic activity”.

For the molecule `CC(C)S(=O)(=O)C(C)(C)C(=O)Nc1nc2c(s1)CCCC2` [2-Methyl-2-(propane-2-sulfonyl)-N-(4,5,6,7-tetrahydro-benzothiazol-2-yl)-propionamide], the agonistic activity result was “agonistic activity”.

On to `Cc1nc(NC(=O)C(C(C)C)S(=O)(=O)C(C)C)sc1C(C)(C)C` (stereo not drawn) [N-(5-tert-Butyl-4-methyl-thiazol-2-yl)-3-methyl-2-(propane-2-sulfonyl)-butyramide], for which the agonistic activity entry is recorded as “agonistic activity”.

`CC(C)(C)S(=O)(=O)C(C)(C)C(=O)Nc1cc(C(F)(F)F)ccn1` [2-Methyl-2-(2-methyl-propane-2-sulfonyl)-N-(4-trifluoromethyl-pyridin-2-yl)-propionamide]: the agonistic activity entry is on record as “agonistic activity”.

For the molecule `CCCS(=O)(=O)C(C)(C)C(=O)Nc1ccc(C(F)(F)F)cn1` [2-Methyl-2-(propane-1-sulfonyl)-N-(5-trifluoromethyl-pyridin-2-yl)-propionamide], the agonistic activity entry was “agonistic activity”.

For the molecule `CC(=O)N1CCCC(CS(=O)(=O)C(C)(C)C(=O)Nc2cc(C(C)(C)C)on2)C1` (stereo not drawn) [2-(1-Acetyl-piperidin-3-ylmethanesulfonyl)-N-(5-tert-butyl-isoxazol-3-yl)-2-methyl-propionamide], the agonistic activity result is recorded as “agonistic activity”.

In the case of `CCCS(=O)(=O)C(C)(C)C(=O)Nc1cc(C(F)(F)F)ccn1` [2-Methyl-2-(propane-1-sulfonyl)-N-(4-trifluoromethyl-pyridin-2-yl)-propionamide], the agonistic activity result was “agonistic activity”.

Regarding `CC(C)c1cc(NC(=O)C(C)(C)S(=O)(=O)CC2CCOCC2)n(C)n1` [N-(5-Isopropyl-2-methyl-2H-pyrazol-3-yl)-2-methyl-2-(tetrahydro-pyran-4-ylmethanesulfonyl)-propionamide], the agonistic activity result was “agonistic activity”.

Regarding `CC(C)(C(=O)Nc1ccc(C(F)(F)F)cn1)S(=O)(=O)CC1CCCCO1` (stereo not drawn) [2-Methyl-2-(tetrahydro-pyran-2-ylmethanesulfonyl)-N-(5-trifluoromethyl-pyridin-2-yl)-propionamide], the agonistic activity entry is on record as “agonistic activity”.

Take `CC(C)(C)c1cc(NC(=O)C(C)(C)S(=O)(=O)CC2CCN(S(C)(=O)=O)C2)no1` (stereo not drawn) [N-(5-tert-Butyl-isoxazol-3-yl)-2-(1-methanesulfonyl-pyrrolidin-3-ylmethanesulfonyl)-2-methyl-propionamide]: the 50% effective concentration (EC50) was 44.1 nM and the agonistic activity entry is listed as “agonistic activity”.

With `CC(C)(C)c1csc(NC(=O)C(C)(C)S(=O)(=O)C2CCOCC2)n1` [N-(4-tert-Butyl-thiazol-2-yl)-2-methyl-2-(tetrahydro-pyran-4-sulfonyl)-propionamide], the agonistic activity entry is “agonistic activity”. In addition, the EC50 under setting [1] was found to be 12.4 nM.

For `CCCS(=O)(=O)C(C)(C)C(=O)Nc1nc(-c2ccncc2)cs1` [2-Methyl-2-(propane-1-sulfonyl)-N-(4-pyridin-4-yl-thiazol-2-yl)-propionamide], the agonistic activity result is given as “agonistic activity”.

`CC(C)(C(=O)Nc1ccc(C(F)(F)F)cn1)S(=O)(=O)CC1CCOCC1` [2-Methyl-2-(tetrahydro-pyran-4-ylmethanesulfonyl)-N-(5-trifluoromethyl-pyridin-2-yl)-propionamide]: the EC50 turned out to be 72.3 nM and the agonistic activity entry is recorded as “agonistic activity”.

Turning to `CC(C)S(=O)(=O)C(C)(C)C(=O)Nc1cnc2ccccc2c1` [2-Methyl-2-(propane-2-sulfonyl)-N-quinolin-3-yl-propionamide], the agonistic activity entry is on record as “agonistic activity”.

In the case of `Cn1nc(C(C)(C)C)cc1NC(=O)C(C)(C)S(=O)(=O)C1CCCC1` [N-(5-tert-Butyl-2-methyl-2H-pyrazol-3-yl)-2-cyclopentanesulfonyl-2-methyl-propionamide], the agonistic activity result is given as “agonistic activity”.

Consider `CC(C)S(=O)(=O)C(C)(C)C(=O)Nc1cc(-c2ccccc2)nn1C` [2-Methyl-N-(2-methyl-5-phenyl-2H-pyrazol-3-yl)-2-(propane-2-sulfonyl)-propionamide], for which the agonistic activity entry is on record as “agonistic activity”.

As to `CCCC(CC)S(=O)(=O)C(C)(C)C(=O)Nc1cc(C(C)(C)C)nn1C` (stereo not drawn) [N-(5-tert-Butyl-2-methyl-2H-pyrazol-3-yl)-2-(hexane-3-sulfonyl)-2-methyl-propionamide], the agonistic activity entry is recorded as “agonistic activity”.

Regarding `CCCS(=O)(=O)C(C)(C)C(=O)Nc1nc(C)c(C(C)(C)C)s1` [N-(5-tert-Butyl-4-methyl-thiazol-2-yl)-2-methyl-2-(propane-1-sulfonyl)-propionamide], the EC50 was found to be 7.2 nM and the agonistic activity result was “agonistic activity”.

Consider `CC(C)c1cc(NC(=O)C(C)(C)S(=O)(=O)CC2CCOCC2)on1` [N-(3-Isopropyl-isoxazol-5-yl)-2-methyl-2-(tetrahydro-pyran-4-ylmethanesulfonyl)-propionamide], for which the agonistic activity entry is given as “agonistic activity”.

Turning to `CCC(C)S(=O)(=O)C(C)(C)C(=O)Nc1cc(C(C)(C)C)on1` (stereo not drawn) [2-(Butane-2-sulfonyl)-N-(5-tert-butyl-isoxazol-3-yl)-2-methyl-propionamide], the agonistic activity result is recorded as “agonistic activity”. In addition, the EC50 under setting [1] is 18.7 nM.

As for `CCCc1cc(NC(=O)C(C)(C)S(=O)(=O)CC2CCOCC2)on1` [2-Methyl-N-(3-propyl-isoxazol-5-yl)-2-(tetrahydro-pyran-4-ylmethanesulfonyl)-propionamide], the agonistic activity entry was “agonistic activity”.

With `CC(C)S(=O)(=O)C(C)(C)C(=O)Nc1nc(-c2ccccn2)cs1` [2-Methyl-2-(propane-2-sulfonyl)-N-(4-pyridin-2-yl-thiazol-2-yl)-propionamide], the agonistic activity entry was “agonistic activity”.

Regarding `CC(C)S(=O)(=O)C(C)C(=O)Nc1nc(C(C)(C)C)cs1` (stereo not drawn) [N-(4-tert-Butyl-thiazol-2-yl)-2-(propane-2-sulfonyl)-propionamide], the agonistic activity result is “agonistic activity”.

Values taken from patent US8829034B2, “Compounds which modulate the CB2 receptor” (Boehringer Ingerlheim International GmbH, priority 2006, dated 2014).
